# Assay results from EPA's ToxRefDB 2.
# Assays:
# rat [1] = conditions: Developmental neurotoxicity study; Oral; Feed; dose end: 90 PND; group: cannot be grouped; systemic / organ weight / liver / relative to body weight + systemic / pathology microscopic / liver / vacuolization
# rat [2] = conditions: Subchronic oral toxicity in rodents, fischer, Feed, dose end: 8 week, group: systemic
# rat [3] = conditions: Carcinogenicity; fischer; Oral; Feed; dose end: 105 week; group: systemic; systemic / in life observation / clinical signs / convulsions + systemic / in life observation / clinical signs / nervousness + systemic / …
# rat [4] = conditions: Carcinogenicity, other, Oral, Feed, dose end: 80 week, group: systemic
# mouse [5] = conditions: Carcinogenicity, b6c3f1, Oral, Feed, dose end: 80 week, group: systemic
# mouse [6] = conditions: Multigenerational reproductive toxicity study; other; Oral; Feed; dose end: 1 generation; group: reproductive; reproductive / offspring survival early / litter size / litter size
# rat [7] = conditions: Subchronic oral toxicity in rodents, other, Feed, dose end: 6 week, group: systemic
# mouse [8] = conditions: Subchronic oral toxicity in rodents, b6c3f1, Feed, dose end: 6 week, group: systemic, systemic / in life observation / mortality / mortality
# dog [9] = conditions: Subchronic oral toxicity in nonrodent, beagle, Gavage/Intubation, dose end: 92 day, group: systemic
# dog [10] = conditions: Sub-acute repeat dose toxicity, beagle, Oral, Gavage/Intubation, dose end: 14 day, group: systemic
# rat [11] = conditions: Fertility (Segment I), sprague dawley, Oral, Gavage/Intubation, dose end: 1 generation, group: parental
# rabbit = conditions: Sub-acute repeat dose toxicity, new zealand white, Oral, Gavage/Intubation, dose end: 5 day, group: systemic
# rat [12] = conditions: Fertility (Segment I); sprague dawley; Oral; Gavage/Intubation; dose end: 1 generation; group: parental; systemic / in life observation / body weight / body weight gain + systemic / in life observation / clinical signs / anogenital staining
# rat [13] = conditions: Subchronic oral toxicity in rodents, sprague dawley, Gavage/Intubation, dose end: 90 day, group: systemic
# rat [14] = conditions: Sub-acute repeat dose toxicity, sprague dawley, Oral, Gavage/Intubation, dose end: 14 day, group: systemic
# rat [15] = conditions: Subchronic oral toxicity in rodents, fischer, Gavage/Intubation, dose end: 13 week, group: systemic
# mouse [16] = conditions: Carcinogenicity, b6c3f1, Oral, Gavage/Intubation, dose end: 2 year, group: systemic
# rat [17] = conditions: Carcinogenicity, fischer, Oral, Gavage/Intubation, dose end: 2 year, group: systemic
# mouse [18] = conditions: Subchronic oral toxicity in rodents, b6c3f1, Gavage/Intubation, dose end: 13 week, group: systemic
# rat [19] = conditions: Multigenerational reproductive toxicity study, Other, Oral, Feed, dose end: 2 generation
# rat [20] = conditions: Subchronic oral toxicity in rodents, fischer, Feed, dose end: 13 week, group: systemic, systemic / organ weight / adrenal gland / nos + systemic / organ weight / kidney / nos + systemic / organ weight / liver / nos + systemic / …
# mouse [21] = conditions: Subchronic oral toxicity in rodents, cd1, Feed, dose end: 13 week, group: systemic
# dog [22] = conditions: Chronic toxicity, beagle, Oral, Capsule, dose end: 52 week, group: systemic
# mouse [23] = conditions: Carcinogenicity, cd1, Oral, Feed, dose end: 18 month, group: systemic
# dog [24] = conditions: Subchronic oral toxicity in nonrodent, beagle, Capsule, dose end: 13 week, group: systemic
# [25] = systemic / pathology microscopic / brain / necrosis + systemic / in life observation / body weight / body weight + systemic / in life …
# [26] = systemic / in life observation / body weight / body weight + systemic / in life observation / clinical signs / [other] + systemic / in life …
# [27] = systemic / in life observation / clinical signs / excitation + systemic / in life observation / clinical signs / tremors
# [28] = systemic / in life observation / clinical signs / excitation + systemic / in life observation / clinical signs / tremors + systemic / in …
# [29] = systemic / in life observation / body weight / body weight
# [30] = systemic / in life observation / body weight / body weight + systemic / in life observation / mortality / mortality
# [31] = systemic / clinical chemistry / albumin / albumin + systemic / in life observation / clinical signs / erythema + systemic / clinical …
# [32] = systemic / clinical chemistry / [other] / [other] + systemic / clinical chemistry / hepatic mixed function oxidase (mfo) assay / hepatic …
# [33] = systemic / in life observation / clinical signs / abnormal feces
# [34] = systemic / in life observation / clinical signs / anogenital staining + systemic / in life observation / clinical signs / salivation
# [35] = systemic / in life observation / body weight / body weight + systemic / in life observation / clinical signs / abnormal feces + systemic / …
# [36] = systemic / in life observation / mortality / mortality + systemic / in life observation / body weight / body weight + systemic / in life …
# [37] = systemic / in life observation / clinical signs / salivation + systemic / pathology microscopic / bone / proliferation
# [38] = systemic / in life observation / clinical signs / salivation + systemic / pathology microscopic / bone / proliferation + systemic / …
# [39] = systemic / clinical chemistry / [other] / [other] + systemic / clinical chemistry / cytochrome p450, nos / cytochrome p450, nos + systemic…
# [40] = systemic / in life observation / mortality / mortality + systemic / pathology microscopic / brain / degeneration + systemic / pathology …
# [41] = systemic / pathology microscopic / stomach / hyperplasia
# [42] = systemic / pathology microscopic / stomach / papilloma + systemic / pathology microscopic / stomach / hyperplasia
# [43] = systemic / pathology microscopic / spleen / leukemia mononuclear
# [44] = systemic / pathology microscopic / spleen / leukemia mononuclear + systemic / pathology microscopic / stomach / papilloma + systemic / …
# [45] = systemic / in life observation / mortality / mortality + systemic / in life observation / body weight / body weight + systemic / pathology …
# [46] = group: offspring, systemic / in life observation / body weight / offspring (pup) weight + systemic / pathology gross / liver / discolored + systemic / …
# [47] = group: parental, systemic / organ weight / liver / relative to body weight
# [48] = group: parental, systemic / organ weight / liver / relative to body weight + systemic / in life observation / body weight / body weight + systemic / in life …
# [49] = systemic / pathology microscopic / liver / hypertrophy
# [50] = systemic / pathology microscopic / liver / hypertrophy + systemic / clinical chemistry / alanine aminotransferase (alt/sgpt) / alanine …
# [51] = systemic / pathology microscopic / liver / pigmentation + systemic / clinical chemistry / alkaline phosphatase (alp/alk) / alkaline …
# [52] = systemic / organ weight / liver / relative to body weight
# [53] = systemic / organ weight / liver / relative to body weight + systemic / organ weight / liver / absolute
# [54] = systemic / clinical chemistry / alkaline phosphatase (alp/alk) / alkaline phosphatase (alp/alk) + systemic / pathology gross / liver / …
# [55] = systemic / organ weight / prostate / relative to body weight
compound,measurement,setting,value
ClC1=C(Cl)[C@]2(Cl)[C@@H]3[C@@H]4C[C@@H]([C@H]5O[C@@H]45)[C@@H]3[C@@]1(Cl)C2(Cl)Cl [Dieldrin],LEL,rat [1],0.00035 mg/kg/day
same,LOAEL,rat [1],> 0.00035 mg/kg/day
same,NEL,rat [1],< 0.00035 mg/kg/day
same,NOAEL,rat [1],≥ 0.00035 mg/kg/day
same,LOAEL,rat [2]; systemic / pathology microscopic / brain / necrosis,5 mg/kg/day
same,LEL,rat [2]; systemic / pathology microscopic / brain / necrosis + systemic / in life observation / body weight / body weight,5 mg/kg/day
same,NEL,rat [2]; [25],2.5 mg/kg/day
same,NOAEL,rat [2]; [25],2.5 mg/kg/day
same,LEL,rat [3],2.5 mg/kg/day
same,LOAEL,rat [3],> 2.5 mg/kg/day
same,NEL,rat [3],0.5 mg/kg/day
same,NOAEL,rat [3],≥ 2.5 mg/kg/day
same,LEL,rat [4]; [26],1.45 mg/kg/day
same,NEL,rat [4]; [26],< 1.45 mg/kg/day
same,LOAEL,rat [4]; systemic / in life observation / clinical signs / convulsions,3.25 mg/kg/day
same,NOAEL,rat [4]; systemic / in life observation / clinical signs / convulsions + systemic / in life observation / body weight / body weight + systemic / in …,1.45 mg/kg/day
same,LOAEL,mouse [5]; [27],0.375 mg/kg/day
same,NOAEL,mouse [5]; [27],< 0.375 mg/kg/day
same,LEL,mouse [5]; [28],0.375 mg/kg/day
same,NEL,mouse [5]; [28],< 0.375 mg/kg/day
same,LEL,mouse [6],0.75 mg/kg/day
same,LOAEL,mouse [6],> 0.75 mg/kg/day
same,NEL,mouse [6],< 0.75 mg/kg/day
same,NOAEL,mouse [6],≥ 0.75 mg/kg/day
same,LEL,rat [7]; [29],2 mg/kg/day
same,NEL,rat [7]; [29],< 2 mg/kg/day
same,LOAEL,rat [7]; [30],> 16 mg/kg/day
same,NOAEL,rat [7]; [30],≥ 16 mg/kg/day
same,LEL,mouse [8],3 mg/kg/day
same,LOAEL,mouse [8],> 6 mg/kg/day
same,NEL,mouse [8],1.5 mg/kg/day
same,NOAEL,mouse [8],≥ 6 mg/kg/day
O=C(NO)C1(NS(=O)(=O)c2ccc(Oc3ccc(F)cc3)cc2)CCOCC1,NEL,dog [9]; systemic / clinical chemistry / albumin / albumin + systemic / in life observation / clinical signs / erythema,10 mg/kg/day
same,LOAEL,dog [9]; [31],> 400 mg/kg/day
same,NOAEL,dog [9]; [31],≥ 400 mg/kg/day
same,LEL,dog [9]; systemic / in life observation / clinical signs / erythema + systemic / clinical chemistry / albumin / albumin + systemic / clinical …,100 mg/kg/day
same,LOAEL,dog [10]; [32],> 400 mg/kg/day
same,NOAEL,dog [10]; [32],≥ 400 mg/kg/day
same,LEL,dog [10]; [33],10 mg/kg/day
same,NEL,dog [10]; [33],< 10 mg/kg/day
same,LEL,rat [11]; systemic / in life observation / clinical signs / anogenital staining,50 mg/kg/day
same,LOAEL,rat [11]; [34],> 1000 mg/kg/day
same,NEL,rat [11]; [34],10 mg/kg/day
same,NOAEL,rat [11]; [34],≥ 1000 mg/kg/day
same,LEL,rabbit; [35],60 mg/kg/day
same,NEL,rabbit; [35],< 60 mg/kg/day
same,LOAEL,rabbit; [36],> 600 mg/kg/day
same,NOAEL,rabbit; [36],≥ 600 mg/kg/day
same,LEL,rat [12],1000 mg/kg/day
same,LOAEL,rat [12],> 1000 mg/kg/day
same,NEL,rat [12],50 mg/kg/day
same,NOAEL,rat [12],≥ 1000 mg/kg/day
same,LEL,rat [13]; [37],10 mg/kg/day
same,NEL,rat [13]; [37],< 10 mg/kg/day
same,LOAEL,rat [13]; [38],> 1000 mg/kg/day
same,NOAEL,rat [13]; [38],≥ 1000 mg/kg/day
same,LOAEL,rat [14]; [39],> 1000 mg/kg/day
same,NOAEL,rat [14]; [39],≥ 1000 mg/kg/day
same,LEL,rat [14]; systemic / in life observation / clinical signs / salivation,50 mg/kg/day
same,NEL,rat [14]; systemic / in life observation / clinical signs / salivation + systemic / in life observation / clinical signs / urine staining - perineum…,10 mg/kg/day
O=Cc1ccccc1 [Benzaldehyde],LEL,rat [15]; systemic / in life observation / mortality / mortality,400 mg/kg/day
same,LOAEL,rat [15]; [40],> 800 mg/kg/day
same,NEL,rat [15]; [40],200 mg/kg/day
same,NOAEL,rat [15]; [40],≥ 800 mg/kg/day
same,LOAEL,mouse [16]; [41],> 400 mg/kg/day
same,NOAEL,mouse [16]; [41],≥ 400 mg/kg/day
same,LEL,mouse [16]; [42],300 mg/kg/day
same,NEL,mouse [16]; [42],< 300 mg/kg/day
same,LEL,rat [17]; [43],200 mg/kg/day
same,NEL,rat [17]; [43],< 200 mg/kg/day
same,LOAEL,rat [17]; [44],> 400 mg/kg/day
same,NOAEL,rat [17]; [44],≥ 400 mg/kg/day
same,NEL,mouse [18]; systemic / in life observation / body weight / body weight + systemic / in life observation / mortality / mortality + systemic / pathology …,300 mg/kg/day
same,LEL,mouse [18]; systemic / in life observation / body weight / body weight + systemic / pathology microscopic / kidney / degeneration,600 mg/kg/day
same,LOAEL,mouse [18]; [45],> 1200 mg/kg/day
same,NOAEL,mouse [18]; [45],≥ 1200 mg/kg/day
CSC(=O)c1c(C(F)F)nc(C(F)(F)F)c(C(=O)SC)c1CC(C)C [Dithiopyr],LEL,rat [19]; [46],19.9 mg/kg/day
same,LOAEL,rat [19]; [46],> 218 mg/kg/day
same,NEL,rat [19]; [46],2 mg/kg/day
same,NOAEL,rat [19]; [46],≥ 218 mg/kg/day
same,LEL,rat [19]; [47],16.4 mg/kg/day
same,LOAEL,rat [19]; [47],16.4 mg/kg/day
same,NEL,rat [19]; [48],1.7 mg/kg/day
same,NOAEL,rat [19]; [48],1.7 mg/kg/day
same,LEL,rat [20],6.62 mg/kg/day
same,LOAEL,rat [20],6.62 mg/kg/day
same,NEL,rat [20],0.662 mg/kg/day
same,NOAEL,rat [20],0.662 mg/kg/day
same,LEL,mouse [21]; [49],11.8 mg/kg/day
same,LOAEL,mouse [21]; [49],11.8 mg/kg/day
same,NEL,mouse [21]; [50],1.16 mg/kg/day
same,NOAEL,mouse [21]; [50],1.16 mg/kg/day
same,LOAEL,dog [22]; systemic / pathology microscopic / liver / pigmentation,5 mg/kg/day
same,LEL,dog [22]; [51],5 mg/kg/day
same,NEL,dog [22]; [51],0.5 mg/kg/day
same,NOAEL,dog [22]; [51],0.5 mg/kg/day
same,LEL,mouse [23]; [52],3.27 mg/kg/day
same,LOAEL,mouse [23]; [52],3.27 mg/kg/day
same,NEL,mouse [23]; [53],0.31 mg/kg/day
same,NOAEL,mouse [23]; [53],0.31 mg/kg/day
same,LOAEL,dog [24]; [54],10 mg/kg/day
same,NOAEL,dog [24]; [54],1 mg/kg/day
same,LEL,dog [24]; [55],1 mg/kg/day
same,NEL,dog [24]; [55],< 1 mg/kg/day
